Assay results: the supplement of paper PMC6965134
± gives the standard deviation of the averaged measurements.

Assay: TIMS collisional cross section (CCS, N2) of the lipid ion; higher = larger ion cross section
Details: ionization mode: positive, one isomer drawn

Compound	TIMS collisional cross section (sample type: plasma) [Å²]	TIMS collisional cross section (sample type: Liver) [Å²]	TIMS collisional cross section (sample type: HeLa) [Å²]
CCCCCCCC/C=C\CCCCCCCC(=O)OC[C@@H](COC(=O)CCCCCCCCCCCCCCCC)OC(=O)CCCCCCC/C=C\CCCCCCCC [TG 17:0_18:1_18:1] (ion (formula + adduct): [C56H104O6+NH4] 1+)	325.5		
CCCCC/C=C\C/C=C\CCCCCCCC(=O)OC[C@@H](COC(=O)CCCCCCCCCCCCCCCC)OC(=O)CCCCCCC/C=C\CCCCCCCC [TG 17:0_18:1_18:2] (ion (formula + adduct): [C56H102O6+NH4] 1+)	323.2	322.9	
CCCCCCCC/C=C\CCCCCCCCCC(=O)OC[C@@H](COC(=O)CCCCCCCCCCCCCCCC)OC(=O)CCCCCCC/C=C\CCCCCCCC [TG 17:0_18:1_20:1] (ion (formula + adduct): [C58H108O6+NH4] 1+)	332	331.2	330.7
CCCCC/C=C\C/C=C\CCCCCCCCCC(=O)OC[C@@H](COC(=O)CCCCCCCCCCCCCCCC)OC(=O)CCCCCCC/C=C\CCCCCCCC [TG 17:0_18:1_20:2] (ion (formula + adduct): [C58H106O6+NH4] 1+)	329.3		
CCCCCCCC/C=C\CCCCCCCC(=O)O[C@H](COC(=O)CCCCCCCCCCCCCCCC)COC(=O)CCCCCCCCCCCCCCCCCCCCC [TG 17:0_18:1_22:0] (ion (formula + adduct): [C60H114O6+NH4] 1+)	338.7	338.8	
CCCCC/C=C\C/C=C\C/C=C\C/C=C\CCCC(=O)OC[C@@H](COC(=O)CCCCCCCCCCCCCCCC)OC(=O)CCCCCCC/C=C\C/C=C\CCCCC [TG 17:0_18:2_20:4] (ion (formula + adduct): [C58H100O6+NH4] 1+)		326.4	
CCCCCCC/C=C\CCCCCCCC(=O)OC[C@H](COC(=O)CCCCCCC/C=C\CCCCCCCC)OC(=O)CCCCCCCCCCCCCCCCC [TG 17:1_18:0_18:1] (ion (formula + adduct): [C56H104O6+NH4] 1+)		325.6	
CCCCCCC/C=C\CCCCCCCC(=O)OC[C@H](COC(=O)CCCCCCC/C=C\CCCCCCCC)OC(=O)CCCCCCC/C=C\CCCCCCCC [TG 17:1_18:1_18:1] (ion (formula + adduct): [C56H102O6+NH4] 1+)			323.2
CCCCC/C=C\C/C=C\CCCCCCCC(=O)OC[C@@H](COC(=O)CCCCCCC/C=C\CCCCCCC)OC(=O)CCCCCCC/C=C\CCCCCCCC [TG 17:1_18:1_18:2] (ion (formula + adduct): [C56H100O6+NH4] 1+)	320.6		320.8
CCCCCCC/C=C\CCCCCCCC(=O)OC[C@H](COC(=O)CCCCCCCCCCCCCCCCCC)OC(=O)CCCCCCC/C=C\CCCCCCCC [TG 17:1_18:1_19:0] (ion (formula + adduct): [C57H106O6+NH4] 1+)		328.8	
CCCCC/C=C\C/C=C\C/C=C\CCCCCCCCC(=O)OC[C@@H](COC(=O)CCCCCCC/C=C\CCCCCCC)OC(=O)CCCCCCC/C=C\CCCCCCCC [TG 17:1_18:1_22:3] (ion (formula + adduct): [C60H106O6+NH4] 1+)			332
CC/C=C\C/C=C\C/C=C\C/C=C\C/C=C\CCCCCC(=O)OC[C@@H](COC(=O)CCCCCCC/C=C\CCCCCCC)OC(=O)CCCCCCC/C=C\CCCCCCCC [TG 17:1_18:1_22:5] (ion (formula + adduct): [C60H102O6+NH4] 1+)			328.8
CC/C=C\C/C=C\C/C=C\C/C=C\C/C=C\C/C=C\CCC(=O)OC[C@@H](COC(=O)CCCCCCC/C=C\CCCCCCC)OC(=O)CCCCCCC/C=C\CCCCCCCC [TG 17:1_18:1_22:6] (ion (formula + adduct): [C60H100O6+NH4] 1+)			328.2
CCCCC/C=C\C/C=C\CCCCCCCC(=O)OC[C@@H](COC(=O)CCCCCCC/C=C\CCCCCCC)OC(=O)CCCCCCC/C=C\C/C=C\CCCCC [TG 17:1_18:2_18:2] (ion (formula + adduct): [C56H98O6+NH4] 1+)	318.3	317.5	
CC/C=C\C/C=C\C/C=C\CCCCCCCC(=O)OC[C@@H](COC(=O)CCCCCCC/C=C\CCCCCCC)OC(=O)CCCCCCC/C=C\C/C=C\CCCCC [TG 17:1_18:2_18:3] (ion (formula + adduct): [C56H96O6+NH4] 1+)	317.2		
CCCCC/C=C\C/C=C\C/C=C\C/C=C\CCCC(=O)OC[C@@H](COC(=O)CCCCCCC/C=C\CCCCCCC)OC(=O)CCCCCCC/C=C\C/C=C\CCCCC [TG 17:1_18:2_20:4] (ion (formula + adduct): [C58H98O6+NH4] 1+)		322.8	
CCCCCCC/C=C\CCCCCCCC(=O)OC[C@H](COC(=O)CCCCCCCCCCC/C=C\CCCCCCCC)OC(=O)CCCCCCCCC/C=C\CCCCCCCC [TG 17:1_20:1_22:1] (ion (formula + adduct): [C62H114O6+NH4] 1+)		340	

Compound	TIMS collisional cross section (sample type: plasma) [Å²]	TIMS collisional cross section (sample type: Liver) [Å²]	TIMS collisional cross section (sample type: HeLa) [Å²]
CCCC/C=C\C/C=C\CCCCCCCC(=O)OC[C@H](COC(=O)CCC/C=C\C/C=C\C/C=C\C/C=C\CCCCC)OC(=O)CCCCCCC/C=C\C/C=C\CCCCC [TG 17:2_18:2_20:4] (ion (formula + adduct): [C58H96O6+NH4] 1+)		322.2	
CCCCCCCC/C=C\CCCCCCCC(=O)OC[C@@H](COC(=O)CCCCCCCCCCCCCCCCC)OC(=O)CCCCCCCCCCCCCCCCC [TG 18:0_18:0_18:1] (ion (formula + adduct): [C57H108O6+NH4] 1+)	330.6		
CCCCCCCCCCCCCCCCCCCCCC(=O)OC[C@@H](COC(=O)CCCCCCCCCCCCCCCCC)OC(=O)CCCCCCCCCCCCCCCCC [TG 18:0_18:0_22:0] (ion (formula + adduct): [C61H118O6+NH4] 1+)		344.1	
CCCCCCCC/C=C\CCCCCCCC(=O)OC[C@@H](COC(=O)CCCCCCCCCCCCCCCCC)OC(=O)CCCCCCC/C=C\CCCCCCCC [TG 18:0_18:1_18:1] (ion (formula + adduct): [C57H106O6+NH4] 1+)	328.45 ± 0.49		
CCCCC/C=C\C/C=C\CCCCCCCC(=O)OC[C@@H](COC(=O)CCCCCCCCCCCCCCCCC)OC(=O)CCCCCCC/C=C\CCCCCCCC [TG 18:0_18:1_18:2] (ion (formula + adduct): [C57H104O6+NH4] 1+)	326.25 ± 0.49	326.4	325.1
CC/C=C\C/C=C\C/C=C\CCCCCCCC(=O)OC[C@@H](COC(=O)CCCCCCCCCCCCCCCCC)OC(=O)CCCCCCC/C=C\CCCCCCCC [TG 18:0_18:1_18:3] (ion (formula + adduct): [C57H102O6+NH4] 1+)		324.1	
CCCCCCCC/C=C\CCCCCCCCCC(=O)OC[C@@H](COC(=O)CCCCCCCCCCCCCCCCC)OC(=O)CCCCCCC/C=C\CCCCCCCC [TG 18:0_18:1_20:1] (ion (formula + adduct): [C59H110O6+NH4] 1+)	334.1		333.7
CCCCCCCC/C=C\CCCCCCCC(=O)O[C@H](COC(=O)CCCCCCCCCCCCCCCCC)COC(=O)CCCCCCCCCCCCCCCCCCCCC [TG 18:0_18:1_22:0] (ion (formula + adduct): [C61H116O6+NH4] 1+)	341.9	342	341.8
CCCCCCCC/C=C\CCCCCCCCCCCC(=O)OC[C@@H](COC(=O)CCCCCCCCCCCCCCCCC)OC(=O)CCCCCCC/C=C\CCCCCCCC [TG 18:0_18:1_22:1] (ion (formula + adduct): [C61H114O6+NH4] 1+)			339.3
CCCCC/C=C\C/C=C\C/C=C\CCCCCCCCC(=O)OC[C@@H](COC(=O)CCCCCCCCCCCCCCCCC)OC(=O)CCCCCCC/C=C\CCCCCCCC [TG 18:0_18:1_22:3] (ion (formula + adduct): [C61H110O6+NH4] 1+)			336.5
CC/C=C\C/C=C\C/C=C\C/C=C\C/C=C\C/C=C\CCC(=O)OC[C@@H](COC(=O)CCCCCCCCCCCCCCCCC)OC(=O)CCCCCCC/C=C\CCCCCCCC [TG 18:0_18:1_22:6] (ion (formula + adduct): [C61H104O6+NH4] 1+)		333.4	333.1
CCCCC/C=C\C/C=C\CCCCCCCCCC(=O)OC[C@@H](COC(=O)CCCCCCCCCCCCCCCCC)OC(=O)CCCCCCC/C=C\C/C=C\CCCCC [TG 18:0_18:2_20:2] (ion (formula + adduct): [C59H106O6+NH4] 1+)		330.3	
CCCCC/C=C\C/C=C\C/C=C\C/C=C\CCCCCC(=O)OC[C@@H](COC(=O)CCCCCCCCCCCCCCCCC)OC(=O)CCCCCCC/C=C\C/C=C\CCCCC [TG 18:0_18:2_22:4] (ion (formula + adduct): [C61H106O6+NH4] 1+)			335.4
CC/C=C\C/C=C\C/C=C\C/C=C\C/C=C\CCCC(=O)OC[C@@H](COC(=O)CCCCCCCCCCCCCCCCC)OC(=O)CCCCCCC/C=C\C/C=C\C/C=C\CC [TG 18:0_18:3_20:5] (ion (formula + adduct): [C59H98O6+NH4] 1+)	325.1		
CCCCCCCCCCCCCCCCCCCCCC(=O)OC[C@@H](COC(=O)CCCCCCCCCCCCCCCCC)OC(=O)CCCCCCCCCCCCCCCCCC [TG 18:0_19:0_22:0] (ion (formula + adduct): [C62H120O6+NH4] 1+)		346.5	
CCCCCCCCCCCCCCCCCCCCCC(=O)OC[C@@H](COC(=O)CCCCCCCCCCCCCCCCC)OC(=O)CCCCCCCCCCCCCCCCCCC [TG 18:0_20:0_22:0] (ion (formula + adduct): [C63H122O6+NH4] 1+)	349.1	349.3	
